From paper PMC11089506 (Journal of Medicinal Chemistry, 2024)
Where a name gives a salt, the structure may show the parent alone. Read-outs that look alike come from different tables or passages of the source.

Assays:
[1] = target: human 5-HT2CR (Homo sapiens, UniProt P28335); assay: Ca2+/Fluo-4 assay, agonist mode, stable 5-HT2CR-HEK293 cells; settings: for 5-HT2CR pEC50 ± S.E.M. / 5-HT2CR Rmax ± S.E.M.: Table S2; for EC50: at least 3 independent experiments; for 5-HT2CR Rmax ± S.E.M.: % of the 5-HT Rmax on the same 96-well plate; for 5-HT2CR Rmax (%): % of the 5-HT Rmax
Chain of human 5-HT2CR (P28335 33-458): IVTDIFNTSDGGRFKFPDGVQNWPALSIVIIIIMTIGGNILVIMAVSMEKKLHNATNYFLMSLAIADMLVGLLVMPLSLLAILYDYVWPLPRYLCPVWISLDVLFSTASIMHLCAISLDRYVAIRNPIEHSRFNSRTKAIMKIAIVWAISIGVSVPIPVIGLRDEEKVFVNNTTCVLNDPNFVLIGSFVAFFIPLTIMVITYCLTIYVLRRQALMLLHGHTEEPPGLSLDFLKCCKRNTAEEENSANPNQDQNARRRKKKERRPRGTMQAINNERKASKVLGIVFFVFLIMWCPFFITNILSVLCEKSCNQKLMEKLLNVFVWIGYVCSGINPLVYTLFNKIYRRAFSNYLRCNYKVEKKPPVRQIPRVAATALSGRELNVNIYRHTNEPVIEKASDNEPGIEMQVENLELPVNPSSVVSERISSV

[2] = target: human 5-HT2AR (Homo sapiens, UniProt P28223); assay: Ca2+/Fluo-4 assay, agonist mode, stable 5-HT2AR-HEK293 cells; settings: for 5-HT2AR Rmax (%): % of the 5-HT Rmax; for 5-HT2AR pEC50 ± S.E.M. / 5-HT2AR Rmax ± S.E.M.: Table S2; for 5-HT2AR Rmax ± S.E.M.: % of the 5-HT Rmax on the same 96-well plate; for EC50: at least 3 independent experiments
Chain of human 5-HT2AR (P28223 whole entry): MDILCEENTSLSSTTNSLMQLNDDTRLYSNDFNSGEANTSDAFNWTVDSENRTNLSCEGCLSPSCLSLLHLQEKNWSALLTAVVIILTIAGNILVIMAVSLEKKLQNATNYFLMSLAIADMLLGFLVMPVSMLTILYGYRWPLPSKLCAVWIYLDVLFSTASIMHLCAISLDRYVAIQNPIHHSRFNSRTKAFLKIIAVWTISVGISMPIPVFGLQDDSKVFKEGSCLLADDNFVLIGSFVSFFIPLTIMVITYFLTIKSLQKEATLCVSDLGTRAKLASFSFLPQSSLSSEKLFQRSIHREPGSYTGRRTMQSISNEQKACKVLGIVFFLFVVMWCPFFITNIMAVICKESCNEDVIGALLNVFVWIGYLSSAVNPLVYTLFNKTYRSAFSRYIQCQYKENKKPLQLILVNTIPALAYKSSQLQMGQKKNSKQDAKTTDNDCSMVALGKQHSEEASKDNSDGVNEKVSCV

[3] = read-out: 5-HT2AR EC50, Table 1
[4] = read-out: 5-HT2CR EC50, Table 1

COc1cc(C(F)(F)F)c(OC)cc1[C@H]1CCCNC1 [(R)-11, 3-(2,5-Dimethoxy-4-(trifluoromethyl)phenyl)piperidine Hydrochloride]
5-HT2CR pEC50 ± S.E.M. [1]: 6.07 ± 0.06

COc1cc(C(F)(F)F)c(OC)cc1[C@H]1CCCN(C)C1 [(R)-19, (R)-3-(2,5-Dimethoxy-4-(trifluoromethyl)phenyl)-1-methylpiperidine]
5-HT2AR Rmax (%) ([2]; Table 2): 53% | 5-HT2AR pEC50 ± S.E.M. [2]: 5.96 ± 0.09 | 5-HT2AR Rmax ± S.E.M. [2]: 53 ± 8% | EC50 ([1]; 5-HT2CR EC50 (nM), Table 2): > 10000 nM

CCN1CCC[C@H](c2cc(OC)c(C(F)(F)F)cc2OC)C1 [(R)-20, (R)-3-(2,5-Dimethoxy-4-(trifluoromethyl)phenyl)-1-ethylpiperidine]
EC50 ([2]; 5-HT2AR EC50 (nM), Table 2): > 10000 nM | EC50 ([1]; 5-HT2CR EC50 (nM), Table 2): > 10000 nM

COc1cc(C(F)(F)F)c(OC)cc1[C@@H]1CCCN(C)C1 [(S)-19, (S)-3-(2,5-Dimethoxy-4-(trifluoromethyl)phenyl)-1-methylpiperidine]
5-HT2AR Rmax (%) ([2]; Table 2): 19% | 5-HT2AR Rmax ± S.E.M. [2]: 19 ± 2% | 5-HT2CR pEC50 ± S.E.M. [1]: 6.04 ± 0.03

CCN1CCC[C@@H](c2cc(OC)c(C(F)(F)F)cc2OC)C1 [(S)-20, (S)-3-(2,5-Dimethoxy-4-(trifluoromethyl)phenyl)-1-ethylpiperidine]
5-HT2AR Rmax (%) ([2]; Table 2): 44% | 5-HT2AR pEC50 ± S.E.M. [2]: 5.82 ± 0.08 | 5-HT2AR Rmax ± S.E.M. [2]: 44 ± 3% | EC50 ([1]; 5-HT2CR EC50 (nM), Table 2): > 10000 nM

COc1cc(C2CNC2)c(OC)cc1Br [Compound 4, 3-(4-Bromo-2,5-dimethoxyphenyl)azetidine Hydrochloride]
5-HT2AR Rmax (%) ([2]; Table 1): 97 ± 3% | 5-HT2AR pEC50 ± S.E.M. [2]: 8.80 ± 0.10 | 5-HT2AR Rmax ± S.E.M. [2]: 97 ± 3% | EC50 [2, 3]: 1.6 nM | 5-HT2CR pEC50 ± S.E.M. [1]: 8.24 ± 0.07 | 5-HT2CR Rmax ± S.E.M. [1]: 90 ± 3% | EC50 [1, 4]: 5.2 nM

NCCc1c[nH]c2ccc(O)cc12 [Compound 5-HT, 5-hydroxytryptamine, reference compound]
5-HT2AR Rmax (%) ([2]; Table 1): 100% | 5-HT2AR Rmax ± S.E.M. [2]: 100%

Br.COc1cc(C2CCNC2)c(OC)cc1Br (centres unmarked) [Compound 5dis, 3-(4-Bromo-2,5-dimethoxyphenyl)pyrrolidine Hydrobromide]
5-HT2AR Rmax (%) ([2]; Table 1): 39 ± 4% | 5-HT2AR pEC50 ± S.E.M. [2]: 8.11 ± 0.08 | 5-HT2AR Rmax ± S.E.M. [2]: 39 ± 4% | EC50 [2, 3]: 7.7 nM | Rmax at 5-HT2CR [1]: 73% | 5-HT2CR Rmax (%) ([1]; Table 1): 16 ± 3% | 5-HT2CR pEC50 ± S.E.M. [1]: 7.75 ± 0.08 | 5-HT2CR Rmax ± S.E.M. [1]: 16 ± 3% | EC50 [1, 4]: 18 nM

Br.COc1cc(C2CCNC2)c(OC)cc1Br (centres unmarked) [Compound 5eu, 3-(4-Bromo-2,5-dimethoxyphenyl)pyrrolidine Hydrobromide]
5-HT2AR Rmax (%) ([2]; Table 1): 57 ± 3% | 5-HT2AR pEC50 ± S.E.M. [2]: 8.28 ± 0.07 | 5-HT2AR Rmax ± S.E.M. [2]: 57 ± 3% | EC50 [2, 3]: 5.3 nM | Rmax at 5-HT2CR [1]: 16% | 5-HT2CR Rmax (%) ([1]; Table 1): 73 ± 3% | 5-HT2CR pEC50 ± S.E.M. [1]: 7.59 ± 0.03 | 5-HT2CR Rmax ± S.E.M. [1]: 73 ± 3% | EC50 [1, 4]: 26 nM

COc1cc(C2CCCNC2)c(OC)cc1Br (centres unmarked) [Compound 6dis, 3-(4-Bromo-2,5-dimethoxyphenyl)piperidine]
EC50 ([2]; 5-HT2AR EC50 (nM), Table 1): 370 nM | EC50 ([1]; 5-HT2CR EC50 (nM), Table 1): 1900 nM

COc1ccc(OC)c(C2CCCNC2)c1 (centres unmarked) [Compound 7, 3-(2,5-Dimethoxyphenyl)piperidine]
agonist activity at 5-HT2AR (in words) [2]: very weak 5-HT2AR agonist activity | EC50 ([2]; 5-HT2AR EC50 (nM), Table 1): > 10000 nM | EC50 ([1]; 5-HT2CR EC50 (nM), Table 1): > 10000 nM

COc1cc(C2CCCNC2)ccc1C(F)(F)F.Cl (centres unmarked) [Compound 23, 3-(3-Methoxy-4-(trifluoromethyl)phenyl)piperidine Hydrochloride]
fold drop in agonist potency (fold higher EC50) at 5-HT2AR ([2]; relative to (S)-11): more than 500 fold
